In ChEMBL document CHEMBL1147195, “Synthesis and activity of quinolinyl-methylene-thiazolinones as potent and selective cyclin-dependent kinase 1 inhibitors” (Bioorg Med Chem Lett, 2007):

Assays:
[1] = Inhibition of CDK1/cyclinB; set-up: species or system Homo sapiens
[2] = target: Cyclin-dependent kinase 2 (Homo sapiens, UniProt P24941); assay: Inhibition of CDK2
[3] = target: Cyclin-dependent kinase 4 (Homo sapiens, UniProt P11802); assay: Inhibition of CDK4
[4] = target: Serine/threonine-protein kinase AKT (Homo sapiens, UniProt P31751+Q9Y243+P31749); assay: Inhibition of AKT; assay type: protein assay
[5] = target: Protein kinase C alpha type (Homo sapiens, UniProt P17252); assay: Inhibition of PKCa
[6] = target: Protein kinase C delta type (Homo sapiens, UniProt Q05655); assay: Inhibition of PKCd
Sequence of Protein kinase C delta type (Q05655 whole entry): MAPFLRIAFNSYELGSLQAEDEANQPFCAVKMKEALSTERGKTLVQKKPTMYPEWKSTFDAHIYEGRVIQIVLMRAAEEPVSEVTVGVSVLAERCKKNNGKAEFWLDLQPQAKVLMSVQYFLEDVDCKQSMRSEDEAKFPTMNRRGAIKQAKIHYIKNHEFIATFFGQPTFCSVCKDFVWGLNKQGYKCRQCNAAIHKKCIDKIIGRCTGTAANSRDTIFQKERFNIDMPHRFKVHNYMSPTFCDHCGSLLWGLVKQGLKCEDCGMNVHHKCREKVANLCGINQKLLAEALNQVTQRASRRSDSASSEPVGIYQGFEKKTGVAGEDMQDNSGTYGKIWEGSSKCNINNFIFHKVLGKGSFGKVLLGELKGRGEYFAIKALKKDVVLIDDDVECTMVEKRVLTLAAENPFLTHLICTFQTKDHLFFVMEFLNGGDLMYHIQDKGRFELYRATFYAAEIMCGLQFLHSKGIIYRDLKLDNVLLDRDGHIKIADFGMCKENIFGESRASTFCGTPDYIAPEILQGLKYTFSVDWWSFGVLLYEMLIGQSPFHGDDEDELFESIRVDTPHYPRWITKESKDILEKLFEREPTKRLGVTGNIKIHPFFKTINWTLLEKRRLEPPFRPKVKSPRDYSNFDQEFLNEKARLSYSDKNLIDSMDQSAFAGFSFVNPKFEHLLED

[7] = target: Mitogen-activated protein kinase 1 (Homo sapiens, UniProt P28482); assay: Inhibition of ERK
Sequence of Mitogen-activated protein kinase 1 (P28482 whole entry): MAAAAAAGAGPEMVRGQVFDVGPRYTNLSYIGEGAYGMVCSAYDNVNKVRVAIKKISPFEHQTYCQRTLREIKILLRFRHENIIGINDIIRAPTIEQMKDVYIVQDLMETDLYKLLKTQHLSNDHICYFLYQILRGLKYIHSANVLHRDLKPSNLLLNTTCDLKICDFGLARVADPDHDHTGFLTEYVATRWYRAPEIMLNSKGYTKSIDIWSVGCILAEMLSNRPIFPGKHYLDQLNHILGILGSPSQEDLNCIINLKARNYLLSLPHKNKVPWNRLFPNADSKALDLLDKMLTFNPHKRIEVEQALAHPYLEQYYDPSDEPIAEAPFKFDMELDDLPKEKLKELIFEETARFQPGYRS

[8] = target: Glycogen synthase kinase-3 (Homo sapiens, UniProt P49840+P49841); assay: Inhibition of GSKp1; assay type: protein assay
[9] = target: Tyrosine-protein kinase Fyn (Homo sapiens, UniProt P06241); assay: Inhibition of FYN
Sequence of Tyrosine-protein kinase Fyn (P06241 whole entry): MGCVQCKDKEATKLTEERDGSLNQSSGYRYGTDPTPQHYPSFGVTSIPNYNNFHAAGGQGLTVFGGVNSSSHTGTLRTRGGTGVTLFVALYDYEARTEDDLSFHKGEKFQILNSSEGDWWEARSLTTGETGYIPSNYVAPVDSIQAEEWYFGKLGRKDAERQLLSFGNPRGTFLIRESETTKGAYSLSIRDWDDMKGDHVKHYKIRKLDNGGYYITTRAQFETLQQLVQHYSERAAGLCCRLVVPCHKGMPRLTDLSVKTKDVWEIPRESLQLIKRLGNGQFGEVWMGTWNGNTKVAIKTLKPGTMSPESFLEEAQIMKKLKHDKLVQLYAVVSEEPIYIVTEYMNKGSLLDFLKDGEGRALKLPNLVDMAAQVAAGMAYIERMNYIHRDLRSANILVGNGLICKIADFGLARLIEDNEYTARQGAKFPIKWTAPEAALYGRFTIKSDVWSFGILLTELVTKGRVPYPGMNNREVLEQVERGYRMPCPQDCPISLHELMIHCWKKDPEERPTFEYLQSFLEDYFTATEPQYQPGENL

Ephrin type-B receptor 3 = target: T1, Ephrin type-B receptor 3 (Homo sapiens, UniProt P54753); assay: Inhibition of EPHB3
T1 sequence (P54753 whole entry): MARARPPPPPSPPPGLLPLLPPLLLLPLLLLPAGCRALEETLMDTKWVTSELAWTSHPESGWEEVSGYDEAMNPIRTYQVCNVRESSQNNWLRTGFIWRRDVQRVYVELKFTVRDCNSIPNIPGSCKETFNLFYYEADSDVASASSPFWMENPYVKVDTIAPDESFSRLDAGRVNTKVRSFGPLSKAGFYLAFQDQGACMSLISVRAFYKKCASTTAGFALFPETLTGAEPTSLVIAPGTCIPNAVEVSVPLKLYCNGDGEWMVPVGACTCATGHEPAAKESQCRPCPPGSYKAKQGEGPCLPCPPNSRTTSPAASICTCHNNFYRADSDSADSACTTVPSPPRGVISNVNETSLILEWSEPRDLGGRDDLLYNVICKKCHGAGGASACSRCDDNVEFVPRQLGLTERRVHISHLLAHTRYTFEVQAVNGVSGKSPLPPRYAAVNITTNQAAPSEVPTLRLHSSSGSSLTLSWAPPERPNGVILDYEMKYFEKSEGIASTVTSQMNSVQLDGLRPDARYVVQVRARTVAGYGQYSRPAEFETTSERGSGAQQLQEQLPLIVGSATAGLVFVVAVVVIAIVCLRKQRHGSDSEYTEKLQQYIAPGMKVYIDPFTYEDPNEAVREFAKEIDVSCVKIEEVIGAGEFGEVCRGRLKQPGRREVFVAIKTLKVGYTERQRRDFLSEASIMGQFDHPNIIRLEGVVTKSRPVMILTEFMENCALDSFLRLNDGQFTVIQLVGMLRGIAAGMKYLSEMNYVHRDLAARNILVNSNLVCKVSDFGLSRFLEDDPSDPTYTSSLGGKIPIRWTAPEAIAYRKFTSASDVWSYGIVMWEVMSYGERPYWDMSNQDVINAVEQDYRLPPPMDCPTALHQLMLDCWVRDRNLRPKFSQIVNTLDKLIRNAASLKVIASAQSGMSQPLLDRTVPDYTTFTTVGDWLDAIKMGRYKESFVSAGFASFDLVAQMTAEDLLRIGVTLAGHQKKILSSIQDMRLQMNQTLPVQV

SJSA-1 = assay: Antiproliferative activity against human SJSA1 cells; assay type: functional, cell-based
[10] = target: Ribosomal protein S6 kinase alpha-3 (Homo sapiens, UniProt P51812)
Sequence of Ribosomal protein S6 kinase alpha-3 (P51812 whole entry): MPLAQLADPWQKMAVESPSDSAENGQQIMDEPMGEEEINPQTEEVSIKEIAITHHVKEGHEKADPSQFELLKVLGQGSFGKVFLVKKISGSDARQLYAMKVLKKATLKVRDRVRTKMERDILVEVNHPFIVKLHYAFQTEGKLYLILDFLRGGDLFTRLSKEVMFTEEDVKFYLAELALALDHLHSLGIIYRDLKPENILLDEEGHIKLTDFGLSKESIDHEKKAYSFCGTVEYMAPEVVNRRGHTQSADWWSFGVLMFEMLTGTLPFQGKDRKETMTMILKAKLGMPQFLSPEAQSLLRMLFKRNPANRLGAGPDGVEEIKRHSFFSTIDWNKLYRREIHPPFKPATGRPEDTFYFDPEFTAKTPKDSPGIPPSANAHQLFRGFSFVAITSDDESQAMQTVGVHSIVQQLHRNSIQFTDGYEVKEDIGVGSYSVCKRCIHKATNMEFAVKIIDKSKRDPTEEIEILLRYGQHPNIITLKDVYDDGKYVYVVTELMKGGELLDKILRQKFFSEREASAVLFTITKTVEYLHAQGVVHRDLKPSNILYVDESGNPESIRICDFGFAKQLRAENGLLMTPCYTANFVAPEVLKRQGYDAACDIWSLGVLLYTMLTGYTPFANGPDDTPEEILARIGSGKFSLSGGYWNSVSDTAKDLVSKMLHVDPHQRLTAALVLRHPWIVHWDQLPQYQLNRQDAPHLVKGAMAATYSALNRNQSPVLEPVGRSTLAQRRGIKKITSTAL

Sequence of Cyclin-dependent kinase 4 (P11802 whole entry): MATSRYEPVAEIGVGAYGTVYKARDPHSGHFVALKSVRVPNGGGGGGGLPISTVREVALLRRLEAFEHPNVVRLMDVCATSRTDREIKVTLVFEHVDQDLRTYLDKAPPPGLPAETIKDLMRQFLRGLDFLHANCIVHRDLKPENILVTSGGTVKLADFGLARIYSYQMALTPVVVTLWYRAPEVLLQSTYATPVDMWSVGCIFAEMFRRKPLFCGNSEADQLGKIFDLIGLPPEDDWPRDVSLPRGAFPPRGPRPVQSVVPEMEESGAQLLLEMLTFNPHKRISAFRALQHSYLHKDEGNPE

SMILES | Ki [1] [nM] | also measured
O=C1N=C(NCCc2ccc(Br)cc2)S/C1=C\c1ccc2ncccc2c1 | 640 | –
COc1ccccc1CCNC1=NC(=O)/C(=C/c2ccc3ncccc3c2)S1 | 63 | –
CNC1=NC(=O)/C(=C/c2ccc3ncccc3c2)S1 | 270 | –
CCCCNC1=NC(=O)/C(=C/c2ccc3ncccc3c2)S1 | 310 | –
O=C1N=C(NCc2ccccc2)S/C1=C\c1ccc2ncccc2c1 | 150 | –
O=C1N=C(NCc2ccccn2)S/C1=C\c1ccc2ncccc2c1 | 310 | –
CCOc1ccccc1CCNC1=NC(=O)/C(=C/c2ccc3ncccc3c2)S1 | 87 | –
O=C1N=C(NCCc2cccc(Cl)c2)S/C1=C\c1ccc2ncccc2c1 | 130 | –
CONC1=NC(=O)/C(=C/c2ccc3ncccc3c2)S1 | > 2000 | –
O=C1N=C(NCCc2cccc(F)c2)S/C1=C\c1ccc2ncccc2c1 | 60 | –
O=C1N=C(NCCc2cccs2)S/C1=C\c1ccc2ncccc2c1 | 45 | –
O=C1N=C(NCCc2ccc(F)cc2)S/C1=C\c1ccc2ncccc2c1 | 62 | –
COc1ccccc1CNC1=NC(=O)/C(=C/c2ccc3ncccc3c2)S1 | 86 | –
O=C1N=C(NCc2c(Cl)cccc2Cl)S/C1=C\c1ccc2ncccc2c1 | 1040 | –
O=C1N=C(N[C@H](CO)Cc2ccccc2)S/C1=C\c1ccc2ncccc2c1 | 2000 | –
O=C1N=C(N[C@H](CO)c2ccccc2)S/C1=C\c1ccc2ncccc2c1 | 580 | –
COC[C@H](NC1=NC(=O)/C(=C/c2ccc3ncccc3c2)S1)c1ccccc1 | > 2000 | –
O=C1N=C(N[C@@H]2C[C@H]2c2ccccc2)S/C1=C\c1ccc2ncccc2c1 | 23 | Ki [2]: > 2000 nM; Ki [3]: > 2000 nM; Ki [4]: > 2000 nM; Ki [5]: > 2000 nM; Ki [6]: 480 nM; Ki [7]: 220 nM; Ki [8]: > 2000 nM; Ki [9]: > 2000 nM; Ki (Ephrin type-B receptor 3): > 2000 nM; IC50 (SJSA-1): 1850 nM; Ki [10]: > 2000 nM

SMILES | Ki [1] [nM] | also measured
CN(Cc1cccs1)C1=NC(=O)/C(=C/c2ccc3ncccc3c2)S1 | > 2000 | –
O=C1N=C(NCCc2ccccc2Cl)S/C1=C\c1ccc2ncccc2c1 | 46 | –
COc1ccc(CCNC2=NC(=O)/C(=C/c3ccc4ncccc4c3)S2)cc1 | 390 | –
Cc1ccsc1CNC1=NC(=O)/C(=C/c2ccc3ncccc3c2)S1 | 89 | –
O=C1N=C(NCc2ccccc2Br)S/C1=C\c1ccc2ncccc2c1 | 38 | –
O=C1N=C(Nc2ccccc2)S/C1=C\c1ccc2ncccc2c1 | > 2000 | –
O=C1N=C(NCCCc2ccccc2)S/C1=C\c1ccc2ncccc2c1 | 240 | –
O=C1N=C(N[C@@H](CO)Cc2ccccc2)S/C1=C\c1ccc2ncccc2c1 | 230 | IC50 (SJSA-1): 3240 nM
O=C1N=C(N[C@@H](CO)c2ccccc2)S/C1=C\c1ccc2ncccc2c1 | 350 | –
O=C1N=C(NCC(CO)c2ccccc2)S/C1=C\c1ccc2ncccc2c1 (stereo not given) | 390 | –
O=C1N=C(NCc2cccs2)S/C1=C\c1ccc2ncccc2c1 | – | Ki [4]: > 2000 nM; Ki [5]: > 2000 nM; Ki [6]: 320 nM; Ki [7]: 2000 nM; Ki [8]: 500 nM; Ki [9]: > 2000 nM; Ki (Ephrin type-B receptor 3): > 2000 nM; IC50 (SJSA-1): 4550 nM
O=C1N=C(NCCc2ccc(Cl)cc2)S/C1=C\c1ccc2ncccc2c1 | 410 | –
O=C1N=C(NC2CC2)S/C1=C\c1ccc2ncccc2c1 | 270 | –
NC1=NC(=O)/C(=C/c2ccc3ncccc3c2)S1 | 80 | Ki [2]: 2000 nM; Ki [3]: > 2000 nM; Ki [4]: > 2000 nM; Ki [5]: > 2000 nM; Ki [6]: 1700 nM; Ki [7]: > 2000 nM; Ki [8]: > 2000 nM; Ki [9]: > 2000 nM; Ki (Ephrin type-B receptor 3): > 2000 nM; Ki [10]: > 2000 nM
O=C1N=C(NCCc2ccccn2)S/C1=C\c1ccc2ncccc2c1 | 280 | –
O=C1N=C(NCCc2ccccc2)S/C1=C\c1ccc2ncccc2c1 | 60 | –
O=C1N=C(NCCc2ccccc2F)S/C1=C\c1ccc2ncccc2c1 | 120 | –
O=C1N=C(NCc2ccccc2Cl)S/C1=C\c1ccc2ncccc2c1 | 52 | –
